Assay results published in ChEMBL document CHEMBL1201862, “PubChem BioAssay data set” (2004).
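Following 48 hours of exposure in 96-well plates, responses at five concentrations were used to interpolate endpoints linearly. GI50: concentration for 50% inhibition of growth.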 Calls of active or inactive are those of the source. No stated cut-off is given here; in the data, active = GI50 up to about 1.1 µM and inactive = higher.

Experiments:
Test in all cases: DTP human tumour cell line panel, 48 h
Malme-3M = test system: Malme-3M
SK-MEL-28 = test system: SK-MEL-28
NCI/ADR-RES = test system: NCI/ADR-RES
A549 = test system: A549
UO-31 = test system: UO-31
HOP-62 = test system: HOP-62
SW-620 = test system: SW-620
MDA-MB-231 = test system: MDA-MB-231
OVCAR-3 = test system: OVCAR-3
SR = test system: SR
SF-268 = test system: SF-268
HCT-15 = test system: HCT-15
BT-549 = test system: BT-549
SF-295 = test system: SF-295
EKVX = test system: EKVX
NCI-H226 = test system: NCI-H226
786-0 = test system: 786-0
CAKI-1 = test system: CAKI-1
LOX IMVI = test system: LOX IMVI
COLO 205 = test system: COLO 205
KM12 = test system: KM12
Hs-578T = test system: Hs-578T
HCC 2998 = test system: HCC 2998
OVCAR-4 = test system: OVCAR-4
U-251 = test system: U-251
CCRF-CEM = test system: CCRF-CEM
UACC-62 = test system: UACC-62
UACC-257 = test system: UACC-257
RPMI-8226 = test system: RPMI-8226
K562 = test system: K562
M14 = test system: M14
RXF 393 = test system: RXF 393
HL-60 = test system: HL-60
OVCAR-5 = test system: OVCAR-5
SK-MEL-2 = test system: SK-MEL-2
SK-OV-3 = test system: SK-OV-3
IGROV-1 = test system: IGROV-1
NCI-H23 = test system: NCI-H23
TK-10 = test system: TK-10
HT-29 = test system: HT-29
SF-539 = test system: SF-539
MCF7 = test system: MCF7
MOLT-4 = test system: MOLT-4
SN12C = test system: SN12C
PC-3 = test system: PC-3
HCT-116 = test system: HCT-116
DU-145 = test system: DU-145
SNB-75 = test system: SNB-75
MDA-MB-435 = test system: MDA-MB-435
NCI-H522 = test system: NCI-H522
OVCAR-8 = test system: OVCAR-8
ACHN = test system: ACHN
SNB-19 = test system: SNB-19
HOP-92 = test system: HOP-92
MDA-N = test system: MDA-N
T47D = test system: T47D
NCI-H460 = test system: NCI-H460
SK-MEL-5 = test system: SK-MEL-5
A498 = test system: A498

## CCSC1=CC(=O)c2nc3ccccc3c3ccnc1c23
Malme-3M
  GI50: 1.67 µM (inactive)
SK-MEL-28
  GI50: 10.1 µM (inactive)
NCI/ADR-RES
  GI50: 2.62 µM (inactive)
A549
  GI50: 7.8 µM (inactive)
UO-31
  GI50: 5.22 µM (inactive)
HOP-62
  GI50: 18.4 µM (inactive)
SW-620
  GI50: 2.68 µM (inactive)
MDA-MB-231
  GI50: 4.14 µM (inactive)
OVCAR-3
  GI50: 2.56 µM (inactive)
SR
  GI50: 2.7 µM (inactive)
SF-268
  GI50: 2.49 µM (inactive)
HCT-15
  GI50: 2.31 µM
BT-549
  GI50: 12.9 µM (inactive)
SF-295
  GI50: 13.8 µM (inactive)
EKVX
  GI50: 2.58 µM (inactive)
NCI-H226
  GI50: 10.6 µM (inactive)
786-0
  GI50: 3.04 µM (inactive)
CAKI-1
  GI50: 3.82 µM (inactive)
LOX IMVI
  GI50: 4.51 µM (inactive)
COLO 205
  GI50: 8.15 µM (inactive)
KM12
  GI50: 3.9 µM (inactive)
Hs-578T
  GI50: 3.14 µM (inactive)
HCC 2998
  GI50: 8.89 µM (inactive)
OVCAR-4
  GI50: 2.69 µM (inactive)
U-251
  GI50: 3.33 µM (inactive)
CCRF-CEM
  GI50: 2.44 µM (inactive)
UACC-62
  GI50: 2.05 µM (inactive)
UACC-257
  GI50: 1.95 µM (inactive)
RPMI-8226
  GI50: 2.33 µM (inactive)
K562
  GI50: 1.35 µM (inactive)
M14
  GI50: 2.38 µM (inactive)
RXF 393
  GI50: 4.5 µM (inactive)
HL-60
  GI50: 2.06 µM (inactive)
OVCAR-5
  GI50: 3.85 µM (inactive)
SK-MEL-2
  GI50: 1.91 µM (inactive)
SK-OV-3
  GI50: 49 µM (inactive)
IGROV-1
  GI50: 2.72 µM (inactive)
NCI-H23
  GI50: 2.64 µM (inactive)
TK-10
  GI50: 12.1 µM (inactive)
HT-29
  GI50: 3.82 µM (inactive)
SF-539
  GI50: 5.43 µM (inactive)
MCF7
  GI50: 1.88 µM (inactive)
MOLT-4
  GI50: 2.64 µM (inactive)
SN12C
  GI50: 2.64 µM (inactive)
PC-3
  GI50: 2.17 µM (inactive)
HCT-116
  GI50: 2.72 µM (inactive)
DU-145
  GI50: 10.8 µM (inactive)
SNB-75
  GI50: 6.43 µM (inactive)
MDA-MB-435
  GI50: 1.77 µM (inactive)
NCI-H522
  GI50: 1.45 µM (inactive)
OVCAR-8
  GI50: 2.57 µM (inactive)
ACHN
  GI50: 3.65 µM (inactive)
SNB-19
  GI50: 42.2 µM (inactive)
HOP-92
  GI50: 11.4 µM (inactive)
MDA-N
  GI50: 1.95 µM (inactive)
T47D
  GI50: 11.2 µM (inactive)
NCI-H460
  GI50: 6.24 µM (inactive)

## NC(CC(=O)O)(Cc1ccccc1)C(=O)O (centres undefined)
Malme-3M
  GI50: > 100 µM (inactive)
SK-MEL-28
  GI50: > 100 µM (inactive)
NCI/ADR-RES
  GI50: > 100 µM (inactive)
A549
  GI50: > 100 µM (inactive)
UO-31
  GI50: > 100 µM (inactive)
HOP-62
  GI50: > 100 µM (inactive)
SW-620
  GI50: > 100 µM (inactive)
MDA-MB-231
  GI50: > 100 µM (inactive)
OVCAR-3
  GI50: > 100 µM (inactive)
SR
  GI50: > 100 µM (inactive)
HCT-15
  GI50: > 100 µM
BT-549
  GI50: > 100 µM (inactive)
SF-295
  GI50: > 100 µM (inactive)
EKVX
  GI50: > 100 µM (inactive)
NCI-H226
  GI50: > 100 µM (inactive)
786-0
  GI50: > 100 µM (inactive)
CAKI-1
  GI50: > 100 µM (inactive)
SK-MEL-5
  GI50: > 100 µM (inactive)
LOX IMVI
  GI50: > 100 µM (inactive)
COLO 205
  GI50: > 100 µM (inactive)
KM12
  GI50: > 100 µM (inactive)
Hs-578T
  GI50: > 100 µM (inactive)
OVCAR-4
  GI50: > 100 µM (inactive)
U-251
  GI50: > 100 µM (inactive)
CCRF-CEM
  GI50: > 100 µM (inactive)
UACC-62
  GI50: > 100 µM (inactive)
UACC-257
  GI50: > 100 µM (inactive)
RPMI-8226
  GI50: > 100 µM (inactive)
K562
  GI50: > 100 µM (inactive)
M14
  GI50: > 100 µM (inactive)
RXF 393
  GI50: > 100 µM (inactive)
HL-60
  GI50: > 100 µM (inactive)
OVCAR-5
  GI50: > 100 µM (inactive)
SK-MEL-2
  GI50: > 100 µM (inactive)
SK-OV-3
  GI50: > 100 µM (inactive)
IGROV-1
  GI50: > 100 µM (inactive)
NCI-H23
  GI50: > 100 µM (inactive)
TK-10
  GI50: > 100 µM (inactive)
HT-29
  GI50: > 100 µM (inactive)
SF-539
  GI50: > 100 µM (inactive)
MCF7
  GI50: > 100 µM (inactive)
MOLT-4
  GI50: > 100 µM (inactive)
SN12C
  GI50: > 100 µM (inactive)
A498
  GI50: > 100 µM (inactive)
PC-3
  GI50: > 100 µM (inactive)
HCT-116
  GI50: > 100 µM (inactive)
DU-145
  GI50: > 100 µM (inactive)
SNB-75
  GI50: > 100 µM (inactive)
MDA-MB-435
  GI50: > 100 µM (inactive)
NCI-H522
  GI50: > 100 µM (inactive)
OVCAR-8
  GI50: > 100 µM (inactive)
ACHN
  GI50: > 100 µM (inactive)
SNB-19
  GI50: > 100 µM (inactive)
HOP-92
  GI50: > 100 µM (inactive)
MDA-N
  GI50: > 100 µM (inactive)
T47D
  GI50: > 100 µM (inactive)
NCI-H460
  GI50: > 100 µM (inactive)
